The target in the assay is purified human recombinant ATM (ataxia telangiectasia mutated), full length (Homo sapiens (Human), UniProt Q13315). The assay can be described thus: ATM kinase assay - determination of ATM inhibition (IC50 ATM), TR-FRET. The settings on record: 10 μM ATP, substrate p53. Format: biochemical. As for the experimental part:
ATM kinase assay—determination of ATM inhibition (IC50 ATM):
The IC50 value was determined with the aid of a biochemical ATM kinase assay. The assay consists of two steps: the enzymatic reaction and the detection step. Firstly, ATM (ataxia telangiectasia mutated) protein and the test substance are incubated at different concentrations with addition of substrate protein p53 and ATP. ATM mediates the phosphorylation of p53 at several positions, including at amino acid S15. The amount of phosphorylated p53 is determined with the aid of specific antibodies and the TR-FRET technique. The enzymatic ATM assay is carried out as TR-FRET (HTRF™, Cisbio Bioassays) based 384-well assay. In the first step, purified human recombinant ATM (human ATM, full length, GenBank ID NM_000051, expressed in a mammal cell line) is incubated in assay buffer for 15 minutes with the ATM inhibitor in various concentrations and without test substance as negative or neutral control. The assay buffer comprises 25 mM HEPES pH 8.0, 10 mM Mg(CH3COO)2, 1 mM MnCl2, 0,1% BSA and 0,01% Brij® 35, 5 mM dithiothreitol (DTT). […] In the second step, purified human recombinant cmyc-labelled p53 (human p53, full length, GenBank ID BC003596, expressed in Sf21 insect cells) and ATP are added, and the reaction mixture is incubated at 22° C. for 30-35 minutes. The pharmacologically relevant assay volume is 5 μl. […] The enzymatic reaction is stopped by addition of EDTA. […] After incubation, usually for 2 hours (between 1.5 and 15h), for signal development, the plates are analysed in a plate reader (EnVision, PerkinElmer) using TRF mode (and with laser excitation). […] The measurement data were processed by means of Genedata Screener software.

A value given as a limit tells only on which side of the number the result lay.

What is called IC50 is the point on the concentration scale where inhibition reaches its midpoint.

Chain of purified human recombinant ATM (ataxia telangiectasia mutated), full length (Q13315 whole entry, change not shown): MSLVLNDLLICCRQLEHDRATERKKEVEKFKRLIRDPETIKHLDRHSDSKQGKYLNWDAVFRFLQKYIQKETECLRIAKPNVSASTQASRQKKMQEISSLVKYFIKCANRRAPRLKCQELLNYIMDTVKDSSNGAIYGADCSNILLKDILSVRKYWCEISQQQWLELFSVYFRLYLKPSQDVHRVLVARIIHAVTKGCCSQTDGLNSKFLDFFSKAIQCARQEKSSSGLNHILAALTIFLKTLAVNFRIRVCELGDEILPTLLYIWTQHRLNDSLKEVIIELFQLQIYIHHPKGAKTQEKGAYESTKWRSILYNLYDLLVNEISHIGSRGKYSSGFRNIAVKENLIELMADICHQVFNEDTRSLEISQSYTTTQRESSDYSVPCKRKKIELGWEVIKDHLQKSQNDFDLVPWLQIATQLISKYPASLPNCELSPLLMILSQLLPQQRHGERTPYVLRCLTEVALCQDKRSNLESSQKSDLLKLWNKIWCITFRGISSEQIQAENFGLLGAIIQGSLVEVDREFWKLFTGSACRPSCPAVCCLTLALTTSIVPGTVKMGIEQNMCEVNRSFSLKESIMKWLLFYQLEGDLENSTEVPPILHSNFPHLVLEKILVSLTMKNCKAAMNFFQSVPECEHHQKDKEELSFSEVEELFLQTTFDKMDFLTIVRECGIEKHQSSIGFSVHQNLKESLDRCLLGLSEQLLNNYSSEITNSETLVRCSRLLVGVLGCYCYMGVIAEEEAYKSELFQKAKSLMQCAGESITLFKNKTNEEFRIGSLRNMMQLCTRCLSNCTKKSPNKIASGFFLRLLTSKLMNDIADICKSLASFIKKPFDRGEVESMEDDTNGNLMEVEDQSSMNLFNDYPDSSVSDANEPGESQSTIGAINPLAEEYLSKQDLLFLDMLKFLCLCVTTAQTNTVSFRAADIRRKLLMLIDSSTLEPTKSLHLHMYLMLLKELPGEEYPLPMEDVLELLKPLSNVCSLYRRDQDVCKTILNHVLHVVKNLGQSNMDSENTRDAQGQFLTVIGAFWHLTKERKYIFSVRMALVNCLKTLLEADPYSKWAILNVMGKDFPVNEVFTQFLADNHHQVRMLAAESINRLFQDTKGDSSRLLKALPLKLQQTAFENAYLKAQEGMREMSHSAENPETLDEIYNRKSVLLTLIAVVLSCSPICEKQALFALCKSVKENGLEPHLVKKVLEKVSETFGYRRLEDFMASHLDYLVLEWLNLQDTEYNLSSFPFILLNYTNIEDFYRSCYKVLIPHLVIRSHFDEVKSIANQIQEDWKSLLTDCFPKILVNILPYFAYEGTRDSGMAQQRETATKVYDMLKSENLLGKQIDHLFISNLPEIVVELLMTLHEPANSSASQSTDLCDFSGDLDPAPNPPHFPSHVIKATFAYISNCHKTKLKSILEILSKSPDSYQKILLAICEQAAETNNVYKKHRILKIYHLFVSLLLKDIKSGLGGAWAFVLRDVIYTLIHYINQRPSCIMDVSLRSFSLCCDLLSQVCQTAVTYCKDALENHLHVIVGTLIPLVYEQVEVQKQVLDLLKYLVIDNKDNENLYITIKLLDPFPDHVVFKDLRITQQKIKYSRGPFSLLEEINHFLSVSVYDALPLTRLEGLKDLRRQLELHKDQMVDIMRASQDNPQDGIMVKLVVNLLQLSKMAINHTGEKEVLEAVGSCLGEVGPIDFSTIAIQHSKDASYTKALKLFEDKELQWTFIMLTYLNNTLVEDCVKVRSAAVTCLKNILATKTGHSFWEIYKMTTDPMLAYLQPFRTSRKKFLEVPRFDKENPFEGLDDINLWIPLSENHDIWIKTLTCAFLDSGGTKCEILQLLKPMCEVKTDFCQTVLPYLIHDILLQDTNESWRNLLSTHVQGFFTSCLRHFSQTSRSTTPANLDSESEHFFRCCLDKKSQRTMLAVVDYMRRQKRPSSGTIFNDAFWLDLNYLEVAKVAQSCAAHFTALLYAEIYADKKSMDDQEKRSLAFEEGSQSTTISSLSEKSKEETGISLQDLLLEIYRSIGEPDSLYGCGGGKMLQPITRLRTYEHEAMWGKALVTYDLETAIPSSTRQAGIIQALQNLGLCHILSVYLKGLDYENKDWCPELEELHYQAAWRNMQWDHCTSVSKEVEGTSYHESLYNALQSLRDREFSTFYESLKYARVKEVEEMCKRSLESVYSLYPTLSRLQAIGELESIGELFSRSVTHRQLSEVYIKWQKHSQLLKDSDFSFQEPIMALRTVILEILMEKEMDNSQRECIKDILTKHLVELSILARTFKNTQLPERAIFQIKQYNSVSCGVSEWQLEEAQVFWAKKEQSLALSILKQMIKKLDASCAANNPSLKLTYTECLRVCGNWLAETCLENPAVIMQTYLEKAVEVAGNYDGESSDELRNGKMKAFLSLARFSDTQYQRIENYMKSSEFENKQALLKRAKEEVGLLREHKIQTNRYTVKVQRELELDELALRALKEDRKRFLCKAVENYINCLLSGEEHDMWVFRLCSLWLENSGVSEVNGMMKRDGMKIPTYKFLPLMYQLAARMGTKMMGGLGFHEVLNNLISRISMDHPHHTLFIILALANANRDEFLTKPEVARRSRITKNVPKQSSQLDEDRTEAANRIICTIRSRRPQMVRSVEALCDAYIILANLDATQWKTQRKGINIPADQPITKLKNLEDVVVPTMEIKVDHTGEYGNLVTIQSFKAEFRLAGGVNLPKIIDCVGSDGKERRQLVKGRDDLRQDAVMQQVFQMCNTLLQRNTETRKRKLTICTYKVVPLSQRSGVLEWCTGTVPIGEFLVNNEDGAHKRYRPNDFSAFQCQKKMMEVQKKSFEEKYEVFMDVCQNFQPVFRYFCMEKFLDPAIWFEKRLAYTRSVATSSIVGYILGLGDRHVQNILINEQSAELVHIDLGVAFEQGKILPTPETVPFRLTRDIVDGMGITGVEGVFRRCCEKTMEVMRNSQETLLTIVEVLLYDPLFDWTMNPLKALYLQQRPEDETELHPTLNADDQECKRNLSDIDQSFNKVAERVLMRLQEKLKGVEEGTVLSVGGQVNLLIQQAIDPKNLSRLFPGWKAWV

With `COc1cc2ncc3c(c2cc1-c1cnn(C)c1)n(-c1ncc(OCC2CN(C)C2)cc1F)c(=O)n3C` [compound 207, 1-[3-Fluoro-5-(1-methyl-azetidin-3-ylmethoxy)-pyridin-2-yl]-7-methoxy-3-methyl-8-(1-methyl-1H-pyrazol-4-yl)-1,3-dihydro-imidazo[4,5-c]quinolin-2-one], the IC50 is less than 0.01 µM.

On to `COc1cc2ncc3c(c2cc1-c1cnc2nc(C)[nH]c2c1)n(-c1cn(C)nc1C)c(=O)n3C` [compound 154, 1-(1,3-Dimethyl-1H-pyrazol-4-yl)-7-methoxy-3-methyl-8-(2-methyl-1H-imidazo[4,5-b]pyridin-6-yl)-1,3-dihydro-imidazo[4,5-c]quinolin-2-one], for which the IC50 is less than 0.001 µM.

Regarding `COc1cc2ncc3c(c2cc1-c1cnn(C(F)F)c1)n(-c1c(F)cncc1OC)c(=O)n3C` [compound 143, 8-(1-Difluoromethyl-1H-pyrazol-4-yl)-1-(3-fluoro-5-methoxypyridin-4-yl)-7-methoxy-3-methyl-1,3-dihydroimidazo[4,5-c] quinolin-2-one], the IC50 is less than 0.001 µM.

In the case of `COc1cc2ncc3c(c2cc1-c1cnn(C)c1)n(-c1ncc(Cl)cc1F)c(=O)n3C` [compound 119, 1-(5-Chloro-3-fluoropyridin-2-yl)-7-methoxy-3-methyl-8-(1-methyl-1H-pyrazol-4-yl)-1,3-dihydroimidazo[4,5-c]-quinolin-2-one], the concentration for half-maximal inhibition (IC50) was less than 0.001 µM.

As to `COc1cc2ncc3c(c2cc1-c1cnn(C)c1)n(-c1ccncc1C1CC1)c(=O)n3C` [compound 200, 1-(3-Cyclopropylpyridin-4-yl)-7-methoxy-3-methyl-8-(1-methyl-1H-pyrazol-4-yl)-1,3-dihydroimidazo[4,5-c] quinolin-2-one], the IC50 is less than 0.05 µM.

For `CCOc1cnc(-n2c(=O)n(C)c3cnc4cc(OC)c(-c5cnn(C)c5)cc4c32)c(F)c1` [compound 113, 1-(5-Ethoxy-3-fluoropyridin-2-yl)-7-methoxy-3-methyl-8-(1-methyl-1H-pyrazol-4-yl)-1,3-dihydroimidazo[4,5-c]-quinolin-2-one], the concentration for half-maximal inhibition (IC50) is less than 0.001 µM.

On to `COc1cc2ncc3c(c2cc1-c1cnn(C2CNC2)c1)n(-c1c(F)cncc1OC)c(=O)n3C` [compound 208, 8-[1-(Azetidin-3-yl)-1H-pyrazol-4-yl]-1-(3-fluoro-5-methoxypyridin-4-yl)-7-methoxy-3-methyl-1H,2H,3H-imidazo[4,5-c]-quinolin-2-one], for which the IC50 was less than 0.01 µM.

On to `COc1cc2ncc3c(c2cc1-c1cnn(C)c1)n(-c1ccc(C#N)cn1)c(=O)n3C` [Compound Example 48, 6-[7-Methoxy-3-methyl-8-(1-methyl-1H-pyrazol-4-yl)-2-oxo-2,3-dihydroimidazo-[4,5-c]quinolin-1-yl]-nicotinonitrile], for which the IC50 is less than 0.01 µM.

`COc1cnc(-n2c(=O)n(C)c3cnc4cc(OC)c(-c5cn(C)nc5C)cc4c32)c(F)c1` [compound 106, 8-(1,3-Dimethyl-1H-pyrazol-4-yl)-1-(3-fluoro-5-methoxypyridin-2-yl)-7-methoxy-3-methyl-1,3-dihydroimidazo[4,5-c]-quinolin-2-one]: the IC50 is less than 0.001 µM.

`COc1cc2ncc3c(c2cc1-c1cn(C)nn1)n(-c1c(F)cncc1OC)c(=O)n3C` [compound 131, 1-(3-Fluoro-5-methoxy-pyridin-4-yl)-7-methoxy-3-methyl-8-(1-methyl-1H-1,2,3-triazol-4-yl)-1,3-dihydroimidazo[4,5-c]-quinolin-2-one]: the IC50 was less than 0.01 µM.

Consider `COc1cnc(-n2c(=O)n(C)c3cnc4cc(OC)c(-c5ccc6nc(C)[nH]c6c5)cc4c32)c(F)c1` [compound 144, 1-(3-Fluoro-5-methoxy-pyridin-2-yl)-7-methoxy-3-methyl-8-(2-methyl-3H-benzoimidazol-5-yl)-1,3-dihydroimidazo[4,5-c]-quinolin-2-one], for which the IC50 is less than 0.001 µM.

With `CCc1cnccc1-n1c(=O)n(C)c2cnc3cc(OC)c(-c4cnn(C)c4)cc3c21` [compound 156, 1-(3-Ethylpyridin-4-yl)-7-methoxy-3-methyl-8-(1-methyl-1H-pyrazol-4-yl)-1,3-dihydroimidazo[4,5-c] quinolin-2-one], the IC50 is less than 0.001 µM.

Regarding `COc1cnc(-n2c(=O)n(C)c3cnc4cc(OC)c(-c5ccn[nH]5)cc4c32)c(F)c1` [compound 109, 1-(3-Fluoro-5-methoxy-pyridin-2-yl)-7-methoxy-3-methyl-8-(2H-pyrazol-3-yl)-1,3-dihydroimidazo[4,5-c] quinolin-2-one], the IC50 is less than 0.01 µM.

`COc1cc2ncc3c(c2cc1-c1cnn(C)n1)n(-c1cn(C)nc1C)c(=O)n3C` [compound 102, 1-(1,3-Dimethyl-1H-pyrazol-4-yl)-7-methoxy-3-methyl-8-(2-methyl-2H-1,2,3-triazol-4-yl)-1,3-dihydroimidazo-[4,5-c]quinolin-2-one]: the IC50 is less than 0.05 µM.

In the case of `COc1cc2ncc3c(c2cc1-c1cnn(C)n1)n(-c1ncccc1F)c(=O)n3C` [compound 158, 1-(3-Fluoropyridin-2-yl)-7-methoxy-3-methyl-8-(2-methyl-2H-1,2,3-triazol-4-yl)-1,3-dihydroimidazo-[4,5-c] quinolin-2-one], the half-maximal inhibitory concentration (IC50) was less than 0.5 µM.

Turning to `COc1cnc(-n2c(=O)n(C)c3cnc4cc(OC)c(-c5cn(C)nn5)cc4c32)c(F)c1` [compound 133, 1-(3-Fluoro-5-methoxy-pyridin-2-yl)-7-methoxy-3-methyl-8-(1-methyl-1H-1,2,3-triazol-4-yl)-1,3-dihydroimidazo[4,5-c] quinolin-2-one], the IC50 is less than 0.01 µM.

As to `COc1cc2ncc3c(c2cc1-c1cnn(C)c1)n(-c1c(F)cncc1OC(F)F)c(=O)n3C` [compound 146, 1-(3-Difluoromethoxy-5-fluoropyridin-4-yl)-7-methoxy-3-methyl-8-(1-methyl-1H-pyrazol-4-yl)-1,3-dihydroimidazo[4,5-c]-quinolin-2-one], the IC50 is less than 0.001 µM.

In the case of `COc1cc2ncc3c(c2cc1-c1n[nH]cc1C)n(-c1cn(C)nc1C)c(=O)n3C` [compound 151, 1-(1,3-Dimethyl-1H-pyrazol-4-yl)-7-methoxy-3-methyl-8-(4-methyl-1H-pyrazol-3-yl)-1,3-dihydroimidazo[4,5-c] quinolin-2-one], the half-maximal inhibitory concentration (IC50) is less than 0.05 µM.

In the case of `COc1cc2ncc3c(c2cc1-c1cn(C)nn1)n(-c1c(C)cncc1F)c(=O)n3C` [compound 63, 1-(3-Fluoro-5-methylpyridin-4-yl)-7-methoxy-3-methyl-8-(1-methyl-1H-1,2,3-triazol-4-yl)-1,3-dihydroimidazo-[4,5-c] quinolin-2-one], the IC50 is less than 0.01 µM.

In the case of `COc1cc2ncc3c(c2cc1-c1cnn(C)c1)n(-c1ccccn1)c(=O)n3C` [Compound Example 56, 7-Methoxy-3-methyl-8-(1-methyl-1H-pyrazol-4-yl)-1-pyridin-2-yl-1,3-dihydro-imidazo[4,5-c]quinolin-2-one], the IC50 was less than 0.01 µM.

Regarding `CCn1cc(-c2cc3c(cc2OC)ncc2c3n(-c3c(F)cncc3OC)c(=O)n2C)c(C)n1` [compound 142, 8-(1-Ethyl-3-methyl-1H-pyrazol-4-yl)-1-(3-fluoro-5-methoxypyridin-4-yl)-7-methoxy-3-methyl-1,3-dihydroimidazo[4,5-c] quinolin-2-one], the IC50 was less than 0.001 µM.

As to `COc1cc2ncc3c(c2cc1-c1cnn(C)c1)n(-c1ccc(F)cn1)c(=O)n3C` [Compound Example 50, 1-(5-Fluoropyridin-2-yl)-7-methoxy-3-methyl-8-(1-methyl-1H-pyrazol-4-yl)-1,3-dihydroimidazo[4,5-c]-quinolin-2-one], the IC50 is less than 0.01 µM.

For the compound `COc1cc2ncc3c(c2cc1-c1cnn(C)n1)n(-c1ncc(F)cc1F)c(=O)n3C` [compound 101, 1-(3,5-Difluoropyridin-2-yl)-7-methoxy-3-methyl-8-(2-methyl-2H-1,2,3-triazol-4-yl)-1,3-dihydroimidazo-[4,5-c] quinolin-2-one], the IC50 is less than 0.05 µM.

As to `COc1cc2ncc3c(c2cc1-c1cnn(C)c1)n(-c1ccc2cc[nH]c2n1)c(=O)n3C` [compound 69, 7-Methoxy-3-methyl-8-(1-methyl-1H-pyrazol-4-yl)-1-(1H-pyrrolo[2,3-b]pyridin-6-yl)1,3-dihydroimidazo-[4,5-c]quinolin-2-one], the IC50 is less than 0.001 µM.

For the compound `CCn1cc(-n2c(=O)n(C)c3cnc4cc(OC)c(-c5cn(C)nc5C)cc4c32)c(C)n1` [compound 135, 8-(1,3-Dimethyl-1H-pyrazol-4-yl)-1-(1-ethyl-3-methyl-1H-pyrazol-4-yl)-7-methoxy-3-methyl-1,3-dihydro-imidazo[4,5-c]quinolin-2-one], the half-inhibitory concentration (IC50) was less than 0.001 µM.

As to `CCn1cc(-c2cc3c(cc2OC)ncc2c3n(-c3ncc(OC)cc3F)c(=O)n2C)cn1` [compound 111, 8-(1-Ethyl-1H-pyrazol-4-yl)-1-(3-fluoro-5-methoxy-pyridin-2-yl)-7-methoxy-3-methyl-1,3-dihydroimidazo-[4,5-c] quinolin-2-one], the IC50 was less than 0.01 µM.

The values above are taken from US10457677B2 (priority 2015, dated 2019).
